What all share (format): functional
Assay [1] relates to Candida albicans. The assay is described as follows: Antifungal activity against Candida albicans assessed as reduction in microbial growth after 3 days by two-fold dilution method.
For assay [2], the system named is Bacillus subtilis. In words: Antibacterial activity against Bacillus subtilis assessed as reduction in microbial growth after 24 hrs by two-fold dilution method.
For assay [3], the system named is Staphylococcus aureus. In words: Antibacterial activity against Staphylococcus aureus assessed as reduction in microbial growth after 24 hrs by two-fold dilution method.
Assay [4] has as its system Escherichia coli. The assay is described as follows: Antibacterial activity against Escherichia coli assessed as reduction in microbial growth after 24 hrs by two-fold dilution method.

By MIC is commonly meant the lowest concentration found to suppress growth. Regarding `C[C@@]12CC[C@@](O)(CO)[C@@H](C1)[C@]1(C)CCC[C@]21C`, the MIC in assay [1] (72 h, time 3 day) is over 256 µg/mL; in assay [2] it was 32 µg/mL; in assay [3] it was 64 µg/mL; in assay [4], 64 µg/mL.

For `CC[C@H](O)[C@H](O)C[C@H](C)O`, the MIC in assay [1] (72 h, time 3 day) is 64 µg/mL; in assay [2], over 256 µg/mL; in assay [3], over 256 µg/mL; in assay [4], over 256 µg/mL.

As to `COc1cc2c(c(O)c1OC)CO[C@](C)(O)C2=O`, the MIC in assay [1] (72 h, time 3 day) was 32 µg/mL; in assay [2], over 256 µg/mL; in assay [3], over 256 µg/mL; in assay [4] it was over 256 µg/mL.

For `C[C@H](C[C@@H](O)[C@H](O)C(C)(C)O)[C@H]1CC[C@@](C)(O)[C@@H](O)C1`, the MIC in assay [1] (72 h, time 3 day) was over 256 µg/mL; in assay [2], 64 µg/mL; in assay [3], 64 µg/mL; in assay [4], 64 µg/mL.

Consider `C[C@@]12CC=C(CO)[C@@H](C1)[C@]1(C)CCC[C@]21C`, for which the MIC is over 256 µg/mL in assay [1] (72 h, time 3 day); 32 µg/mL in assay [2]; 32 µg/mL in assay [3]; 64 µg/mL in assay [4].

Regarding NYSTATIN, the MIC in assay [1] (time 3.0 day) was determined as 1 µg/mL.

`C/C=C/C[C@H](CO)[C@H](O)[C@H](C)O`: the MIC was 64 µg/mL in assay [1] (72 h, time 3 day); over 256 µg/mL in assay [2]; over 256 µg/mL in assay [3]; over 256 µg/mL in assay [4].

For the compound `C[C@]12CCC[C@@]1(C)[C@@H]1C[C@@]2(C)[C@H](O)C[C@@]1(O)CO`, the MIC was over 256 µg/mL in assay [1] (72 h, time 3 day); 16 µg/mL in assay [2]; 32 µg/mL in assay [3]; 2 µg/mL in assay [4].

As for `NC[C@H]1O[C@H](O[C@H]2[C@H](O)[C@@H](O[C@H]3O[C@H](CO)[C@@H](O)[C@H](N)[C@H]3O)[C@H](N)C[C@@H]2N)[C@H](O)[C@@H](O)[C@@H]1O` [KANAMYCIN], the MIC in assay [2], in assay [3] and in assay [4] was 1 µg/mL in each case.

As to `C[C@@]12CC[C@@](O)(CO)[C@@H](C1)[C@@]1(C)CCC[C@@]21C`, the MIC in assay [1] (72 h, time 3 day) is over 256 µg/mL; in assay [2] it was 64 µg/mL; in assay [3], 64 µg/mL; in assay [4], 64 µg/mL.

Regarding `C[C@@]12CC[C@@](O)(CO)[C@@H](C1)[C@]1(C)C[C@@H](O)C[C@]21C`, the MIC in assay [1] (72 h, time 3 day) was over 256 µg/mL; in assay [2] it was 32 µg/mL; in assay [3], 32 µg/mL; in assay [4], 4 µg/mL.

The values are drawn from ChEMBL document CHEMBL5120790, “Secondary Metabolites from Annulohypoxylon sp. and Structural Revision of Emericellins A and B” (2022).
